Measurements as given in patent US11266664B2, “Use of homosalate and octyl salicylate to treat multiple sclerosis” (Wisconsin Alumni Research Foundation, priority 2016, dated 2022).
“Also recorded” adds a separate entry of the source.

Assays:
EAE mice = assay: MOG35-55-induced EAE in mice, daily clinical score (0-5); format: in vivo; conditions: for Mean Severity / CDI / Day of onset: as E1, mean ± SD; for Mean Severity: clinical score 0-5 averaged over the entire experiment; for CDI: clinical scores summed per animal, divided by mice per group; for Effective topical dose in a mouse model: daily; for Dose dependence of EAE suppression: topical 10, 20 and 30 μl or 0.5, 1.0, 1.5 g/kg (FIG. 8A); for Suppression of EAE (mean clinical score) by sunscreen ingredients: topical daily day 0-30, amount equal to that in the sunscreen: homosalate 1.5 g/kg, octisalate 0.5 g/kg, 12% avobenzone, 16% oxybenzone in 25 μl DMSO; for Incidence: topical daily day 0-30, homosalate 30 μl (1.5 g/kg), octisalate 10 μl (0.5 g/kg), sunscreen spray 200 μl, N=11-12, * P<0.05 vs Control; for Suppression of EAE at 1.5 g/kg: topical, ca 1.5 g/kg
Experimental: Animals and Diet. Female C57BL/6 mice (8-9 weeks old) purchased from Jackson Laboratory were fed a standard lab diet chow 5008 (Purina Mills, Richmond, Ind.) and maintained in the Department of Biochemistry's vivarium. The mice were exposed to 12 h light-dark cycles. All procedures were approved by the Research Animal Resources Committee of the College of Agricultural & Life Sciences, University of Wisconsin-Madison. The mice were randomly divided into groups for different treatment (12 mice/group).
Mice were shaved on their back to receive sunscreen or NBUVB radiation. The following Sunscreen cream or spray was used in our study (See Appendix A): 1. Coppertone spray (SPF 50, MSD Consumer Care, Inc., Memphis, Tenn.); 2. Coppertone water babies (SPF 50, MSD Consumer Care, Inc., Memphis, Tenn.); 3. Hawaiian Tropic (SPF 50, Energizer Personal Care, LLC, Shelton, Conn.); 4. Kiss my face (SPF 50, Kiss My Face, LLC, Gardiner, N.Y.); 5. Blue Lizard Australian Sunscreen (SPF 30, Crown Laboratories, Johnson, Tenn.); 6. Banana Boat Kids (SPF 50, Energizer Personal Care, LLC, Shelton, Conn.); 7. CoTZ Face (SPF40, CoTZ Skincare, West Norriton, Pa.). The sunscreen was applied manually to cover the shaved skin daily depending on the experimental schedule. Four main active ingredients (avobenzone; oxibenzone; homosalate; octyl salicylate) were purchased from Spectrum Chemical MFG. Corp. (New Brunswick, N.J.). The total dose of each ingredient administrated topically on each mouse skin was equal to the amount of the ingredient in the sunscreen.
In this experiment, mice were immunized with myelin oligodendrocyte glycoprotein peptide (MOG)35-55. MOG35-55 kit (EK-2110) was purchased from Hooke lab (Lawrence, Mass.). Each mouse was immunized with subcutaneous injection of 20 μl MOG35-55/CFA emulsion and intraperitoneally injection with 200 ng of pertussis toxin (List Biological Laboratories) diluted in sterile PBS. The second booster pertussis toxin injection was given 48 hours later. Each mouse was scored daily for clinical signs of EAE using the following scale: 0, no clinical disease; 1, loss of tail tone; 2, unsteady gait; 3, hind limb paralysis; 4, forelimb paralysis; 5, death.
Onset was calculated by averaging the first day when clinical signs appeared and continued for at least 2 days. Mean severity was determined by averaging the clinical scores during the entire experiment. The CDI (clinical disease index) was calculated by summing the clinical scores in each animal and divided by the number of mice per group. Statistical analyses were performed using the two-tailed Fisher exact probability test for incidence, the Mann-Whitney nonparametric u test for clinical scores, and the unpaired Student t test for all other measurements. A value of P<0.05 was considered statistically significant.
Female C57BL/6 mice (8-10 weeks old) purchased from Jackson Laboratory (Bar Harbor, Me.) were fed a standard lab chow 5008 (Purina Mills, Richmond, Ind.). The mice were exposed to 12 h light-dark cycles. In one experiment the animals were kept in darkness at all times. All procedures were approved by the Institutional Animal Care and Use Committee of the College of Agricultural & Life Sciences, University of Wisconsin-Madison.
Mice were immunized with MOG35-55 kit (EK-2110, purchased from Hooke lab (Lawrence, Mass.)). Each mouse was immunized with a subcutaneous injection of 20 μl MOG35-55/CFA emulsion and an intraperitoneal injection with 200 ng of pertussis toxin (List Biological Laboratories) diluted in sterile PBS (14). A second booster pertussis toxin injection was given 48 hours later. Each mouse was scored daily for clinical signs of EAE using the following scale: 0, no clinical disease; 1, loss of tail tone; 2, unsteady gait; 3, hindlimb paralysis; 4, forelimb paralysis; 5, death (15).
Sunscreen creams or spray applied topically to the shaved back skin of the mice daily are shown below (Table 2): 1. […]

[1] = Body weight of EAE mice, weighed weekly; format: in vivo; conditions: for Body weight at three doses: topical 0.5, 1.0, 1.5 g/kg, all treatments except homosalate 0.5 g/kg (FIG. 8B); for Body weight of EAE mice given sunscreen ingredients: topical daily day 0-30, amount equal to that in the sunscreen
Experimental: Referring to FIGS. 2A and 2B, we analyzed different sunscreen ingredients. […] Mice were treated with ingredients (avobenzone, oxybenzone or combination) of sunscreen by topical administration daily during EAE (day 0-day 30). Sunscreen spray 200 μl was also used as a positive control. Each mouse was scored daily and weighed weekly during the experiment (30 days). Data are expressed as mean value, N=10-12/group.
Mice were treated with ingredients (homosalate, octyl salicylate or combination) of sunscreen by topical administration daily during EAE (day 0-day 30). Sunscreen spray 200 μl daily was used as a positive control. Mice were scored daily and weighed weekly. Data were expressed as mean value, N=10-12/group.

[2] = Adverse effects of topical application; format: in vivo, mice
MS = conditions: studied in 1961, reference 9; cited from earlier work
rabbits = conditions: unpublished; cited from earlier work
ear edema = ear edema test in mice, reference 7; cited from earlier work

Compound | Mean Severity (EAE mice) | CDI (EAE mice) | Day of onset (EAE mice) | Effective topical dose in a mouse model (EAE mice) [mg/kg] | Suppression of EAE (mean clinical score) by sunscreen ingredients (EAE mice) | Incidence (EAE mice) | Suppression of EAE at 1.5 g/kg (EAE mice) | Body weight of EAE mice given sunscreen ingredients [1] | Adverse effect [2] | other results
CCCCC(CC)COC(=O)c1ccccc1O (centres unmarked) [octyl salicylate, 2-ethylhexyl salicylate] | 2.0 ± 0.8 | 20 ± 1 | 18 ± 3 | 500 | dramatically suppress EAE development; also recorded: provide the protection; also recorded: almost completely prevented EAE development | 75% (9/12) | equally active | without affecting body weight | temporary mild skin irritation | Dose dependence of EAE suppression (EAE mice; listed as octisalate): dose-dependent suppression of EAE; also recorded: dose dependent suppression of EAE; Suppression of EAE (mean clinical score) by sunscreen ingredients (EAE mice; listed as Octisalate): moderate suppression but did not reach statistical significance; Suppression of EAE (mean clinical score) by sunscreen ingredients (EAE mice; listed as octisalate): complete suppression of EAE; also recorded: significantly suppress EAE; Body weight at three doses ([1]; listed as octisalate): increased the body weight; also recorded: significantly different from control
COc1ccc(C(=O)c2ccccc2)c(O)c1 [oxybenzone, reference compound] |  |  |  |  | partially suppress EAE severity; also recorded: little to no significant suppression of EAE; also recorded: fail to suppress EAE; also recorded: slightly suppressed disease progression |  |  | no significant change in body weight |  | 
CC(=O)Oc1ccccc1C(=O)O [aspirin, acetylsalicylic acid] |  |  |  |  |  |  |  |  |  | Relationship between aspirin and MS, control vs treated group (MS): without a significant difference between the control and treated group
COc1ccc(C(=O)CC(=O)c2ccc(C(C)(C)C)cc2)cc1 [avobenzone, reference compound] |  |  |  |  | partially suppress EAE severity; also recorded: little to no significant suppression of EAE; also recorded: fail to suppress EAE; also recorded: slightly suppressed disease progression |  |  | no significant change in body weight |  | Suppression of EAE (mean clinical score) by sunscreen ingredients (EAE mice; listed as Avobenzone): partially suppress EAE severity
CC1CC(OC(=O)c2ccccc2O)CC(C)(C)C1 (centres unmarked) [Homosalate, 3,3,5-trimethylcyclohexyl 2-hydrobenzoate] | 1.3 ± 0.0 | 1 ± 0 | 22 ± 0 | 1500 | significantly suppress EAE | 8% (1/12) * | equally active; also recorded: completely blocked EAE | without affecting body weight | temporary mild skin irritation | Effectiveness when applied less frequently than each day (EAE mice; homosalate 1.5 g/kg topically (FIGS. 8C and 8D)): effectiveness diminished; Mean EAE score, applied every day and every 2-day (EAE mice; homosalate 30 μl or 1.5 g/kg topically (FIGS. 8C and 8D), p<0.05): significantly lower than control; Dose dependence of EAE suppression (EAE mice): dose-dependent suppression of EAE; also recorded: dose dependent suppression of EAE; Suppression of EAE (mean clinical score) by sunscreen ingredients (EAE mice; listed as homosalate): dramatically suppress EAE development; also recorded: provide the protection; also recorded: dramatically suppressed EAE severity; also recorded: complete suppression of EAE; also recorded: almost completely prevented EAE development; Body weight at three doses [1]: increased the body weight; also recorded: significantly different from control; Acute dermal toxicity LD50 (rabbits): > 5000 mg/kg; Anti-inflammatory effect (ear edema): demonstrated
